Where two headings read alike, the source gives them in different places. Bounds are passed on as bounds.

Assay [1] addresses T1, human CB2 receptor (Homo sapiens, UniProt P34972).
T1 construct: purchased Perkin-Elmer Life Sciences, Inc. Lot #1930
As to the kind of experiment: CB2 receptor binding assay, displacement of [3H]CP 55,940. Background: Displacement assays read how much labelled ligand stays bound in the presence of the test substance.

The target of assay [2] is T2, human CB1 receptor (Homo sapiens, UniProt P21554).
T2 construct: purchased Perkin-Elmer Life Sciences, Inc. Lot #1929; host or cells: HEK293 (HEK293 EBNA according to b236 for compounds 33-36)
T2 sequence (P21554 whole entry): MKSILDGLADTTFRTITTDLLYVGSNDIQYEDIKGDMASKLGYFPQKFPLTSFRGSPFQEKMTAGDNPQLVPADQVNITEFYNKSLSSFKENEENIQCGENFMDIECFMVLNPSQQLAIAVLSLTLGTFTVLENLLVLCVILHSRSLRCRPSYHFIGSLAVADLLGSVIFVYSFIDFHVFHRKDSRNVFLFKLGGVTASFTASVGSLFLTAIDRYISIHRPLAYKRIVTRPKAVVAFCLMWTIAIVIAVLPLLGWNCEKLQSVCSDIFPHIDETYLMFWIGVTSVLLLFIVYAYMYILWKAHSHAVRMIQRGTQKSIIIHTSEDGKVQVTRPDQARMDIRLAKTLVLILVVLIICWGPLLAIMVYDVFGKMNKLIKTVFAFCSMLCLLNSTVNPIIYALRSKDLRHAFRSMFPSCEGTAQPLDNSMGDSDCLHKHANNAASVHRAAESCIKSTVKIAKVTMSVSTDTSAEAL
The assay can be described thus: biochemical. The class given is binding.

Assay [3] deals with rat hemorrhagic shock model. As to the kind of experiment: Rat hemorrhagic shock model. The conditions noted are these: FIG. 22.
The target in assay [4] is CB1 (Rattus norvegicus, UniProt P20272). Conditions: literature value, highly potent CB1 analogs; read-out: Ki of reference cannabinoid; cited from earlier work.
Chain of CB1 (P20272 whole entry): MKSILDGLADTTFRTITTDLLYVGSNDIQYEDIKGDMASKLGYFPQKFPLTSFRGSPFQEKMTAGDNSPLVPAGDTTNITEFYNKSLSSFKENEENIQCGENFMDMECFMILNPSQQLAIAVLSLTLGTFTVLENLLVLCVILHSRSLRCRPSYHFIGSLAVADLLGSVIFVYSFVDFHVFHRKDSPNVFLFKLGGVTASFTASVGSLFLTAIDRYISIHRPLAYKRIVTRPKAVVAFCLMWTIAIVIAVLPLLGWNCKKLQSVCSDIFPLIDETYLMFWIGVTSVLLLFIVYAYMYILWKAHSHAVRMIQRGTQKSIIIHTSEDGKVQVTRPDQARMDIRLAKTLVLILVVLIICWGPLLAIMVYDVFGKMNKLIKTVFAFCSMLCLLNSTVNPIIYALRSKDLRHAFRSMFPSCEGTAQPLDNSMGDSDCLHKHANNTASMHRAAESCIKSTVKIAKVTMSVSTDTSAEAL
In assay [5] the test system is C6 glioma cells. The assay can be described thus: Cytotoxicity on C6 glioma cells (MTS, CellTiter 96). Conditions: concentrations of 8 μM.
Setting [6] is: Table 3, human receptor in HEK293 EBNA cell membranes, three experiments in duplicate, SEM in parentheses.
[7] abbreviates: Table 1, affinity ratio of Ki values.
Setting [8] is: Table 1, membranes of HEK293 cells with human CB1, SEM in parentheses, n≧2 in triplicate, read-out: CB1 Ki.
Where [9] appears, read: Table 3, human receptor in HEK293 EBNA cell membranes, three experiments in duplicate, SEM in parentheses, read-out: CB2 Ki.
[10] abbreviates: Table 3, human receptor in HEK293 EBNA cell membranes, three experiments in duplicate, SEM in parentheses, read-out: CB1 Ki.
The mark [11] stands for this setting: Table 8, SEM in parentheses, n≧2 in triplicate.
Where [12] appears, read: Table 8, SEM in parentheses, n≧2 in triplicate, read-out: CB1 Ki.

T1 sequence (P34972 whole entry): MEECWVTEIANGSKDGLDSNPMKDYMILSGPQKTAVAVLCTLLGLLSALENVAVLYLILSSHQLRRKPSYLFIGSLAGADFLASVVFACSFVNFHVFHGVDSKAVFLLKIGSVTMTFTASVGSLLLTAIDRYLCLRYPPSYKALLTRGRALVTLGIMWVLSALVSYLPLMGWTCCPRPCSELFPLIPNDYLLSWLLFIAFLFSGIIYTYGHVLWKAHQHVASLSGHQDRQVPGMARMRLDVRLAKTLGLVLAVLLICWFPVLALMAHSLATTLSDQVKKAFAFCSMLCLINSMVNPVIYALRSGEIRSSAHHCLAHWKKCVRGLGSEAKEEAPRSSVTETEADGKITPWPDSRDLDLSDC

As to `CCCCC(=O)c1cc(OC)cc(OC)c1` [Compound 5, 1-(3,5-Dimethoxy-phenyl)-pentan-1-one], the “CB2 Ki” value in assay [1] (setting [6]) is listed as “significantly reduced binding affinities”. The “CB1 Ki” value in assay [2] (setting [6]) was “significantly reduced binding affinities”.
Consider `CCCCC1(c2cc(O)c3c(c2)OC(C)(C)C2CC=C(C)CC32)SCCS1` (centres unmarked) [Compound 23, 3-(2-Butyl-[1,3]dithiolan-2-yl)-6,6,9-trimethyl-6a,7,10,10a-tetrahydro-6H-benzo[c]chromen-1-ol], for which, in assay [1], the affinity corresponds to a Ki of 0.58 nM, the “fold increase in binding to the CB2 receptor relative to Δ8-THC” value was 47 fold and the “fold increased affinity for the CB2 receptor relative to the carbon equivalent 24” value is on record as 11 fold. Further, in assay [1] (Table 1, membranes of CHO-K1 cells with human CB2, SEM in parentheses, n≧2 in triplicate), the “CB2 Ki” value was “sub-nanomolar”. In addition, in assay [2], the “fold increase in binding to the CB1 receptor relative to Δ8-THC” value was 33 fold and the “fold increased affinity for the CB1 receptor relative to the carbon equivalent 24” value is recorded as 4.7 fold. For the same molecule, in assay [2] (setting [7]), the “Ratio CB1/CB2” value was determined as 1.47. Moreover, the “CB1 Ki” value in assay [2] (Table 1, membranes of HEK293 cells with human CB1, SEM in parentheses, n≧2 in triplicate) was “sub-nanomolar”. Moreover, the Ki in assay [2] (setting [8]) came out at 0.85 nM.
With `CC1=CCC2C(C1)c1c(O)cc(C3(C4CCCC4)SCCS3)cc1OC2(C)C` (centres unmarked) [Compound 24, 3-(2-Cyclopentyl-[1,3]dithiolan-2-yl)-6,6,9-trimethyl-6a,7,10,10a-tetrahydro-6H-benzo[c]chromen-1-ol], in assay [1], the Ki was found to be 2.74 nM and the “fold decrease in affinity at the CB2 receptor (dithiolane ring)” value amounted to 7 fold. Further, the “Ratio CB1/CB2” value in assay [2] (setting [7]) was 3.46. Besides, the Ki in assay [2] (setting [8]) was 9.49 nM.
As for `CC1=CCC2C(C1)c1c(O)cc(C3(C4CCCCC4)SCCS3)cc1OC2(C)C` (centres unmarked) [Compound 25, 3-(2-Cyclohexyl-[1,3]dithiolan-2-yl)-6,6,9-trimethyl-6a,7,10,10a-tetrahydro-6H-benzo[c]chromen-1-ol], the “change in mean blood pressure versus time relative to positive control Δ8-THC and NS-398” value in assay [3] (12 mg/kg in combination with NS-398 2 mg/kg) is “improved behavior relative to the positive control”. In addition, the Ki in assay [1] came out at 1.05 nM; in assay [2] (setting [8]) it was 1.86 nM. Also, in assay [2], the “Ratio CB1/CB2” value is 1.77.
Turning to `CC1=CCC2C(C1)c1c(O)cc(C3(C4CCCCCC4)SCCS3)cc1OC2(C)C` (centres unmarked) [Compound 26, 3-(2-Cycloheptyl-[1,3]dithiolan-2-yl)-6,6,9-trimethyl-6a,7,10,10a-tetrahydro-6H-benzo[c] chromen-1-ol], the inhibition constant (Ki) in assay [1] was 6.62 nM; in assay [2] (setting [8]), 1.76 nM. In addition, the “fold decrease in affinity at the CB2 receptor (dithiolane ring)” value in assay [1] turned out to be 33 fold. Also, the “Ratio CB1/CB2” value in assay [2] (setting [7]) was 0.27.
As for `CC1=CCC2C(C1)c1c(O)cc(C(C)(C)C3CCCC3)cc1OC2(C)C` (centres unmarked) [Compound 27, 3-(1-Cyclopentyl-1-methyl-ethyl)-6,6,9-trimethyl-6a,7,10,1a-tetrahydro-6H-benzo[c]chromen-1-ol], the Ki in assay [1] (Table 1, membranes of CHO-K1 cells with human CB2, SEM in parentheses, n≧2 in triplicate, read-out: CB2 Ki) was 0.39 nM; in assay [2] (read-out: CB1 Ki), 0.34 nM. Further, the “Ratio CB1/CB2” value in assay [2] (setting [7]) worked out at 0.84.
`CC1=CCC2C(C1)c1c(O)cc(C(C)(C)C3CCCCC3)cc1OC2(C)C` (centres unmarked) [Compound 28, 3-(1-Cyclohexyl-1-methyl-ethyl)-6,6,9-trimethyl-6a,7,10,10a-tetrahydro-6H-benzo[c]chromen-1-ol]: the “rapid increase in ΔMAP, level reached relative to basal MAP” value in assay [3] (12 mg/kg with 2 mg/kg NS-398 (COX-2 inhibitor)) is at most 85%. The Ki in assay [1] is 0.65 nM; in assay [2] (setting [8]), 0.57 nM. Besides, the “Ratio CB1/CB2” value in assay [2] (setting [7]) is 0.87; in assay [2] (Table 3, ratio of Ki values), 0.87; in assay [2] (Table 3, ratio of Ki values, listed as 32), “binds both the subtypes with almost equal affinity”.
On to `CC1=CCC2C(C1)c1c(O)cc(C(C)(C)C3CCCCCC3)cc1OC2(C)C` (centres unmarked) [Compound 29, 3-(1-Cycloheptyl-1-methyl-ethyl)-6,6,9-trimethyl-6a,7,10,10a-tetrahydro-6H-benzo[c]chromen-1-ol], for which the Ki in assay [1] amounted to 0.22 nM; in assay [2] (setting [8]) it was 0.94 nM.
As for `CC1=CCC2C(C1)c1c(O)cc(C3(c4ccccc4)SCCS3)cc1OC2(C)C` (centres unmarked) [Compound 34, dithiolanyl-phenyl-Δ^8-THC], the results for the Ki in assay [1] (setting [9]) and in assay [2] (setting [10]) were 17.6 nM and 17.3 nM, respectively. Moreover, in assay [2], the “fold decrease in affinity relative to the 1′-cyclohexyl congener” value is given as 10 fold.
For `CC1=CCC2C(C1)c1c(O)cc(Cc3ccccc3)cc1OC2(C)C` (centres unmarked) [Compound 35, methylene-phenyl-Δ^8-THC], the Ki came out at 85.9 nM in assay [1] (setting [9]) and 67.6 nM in assay [2] (setting [10]). The “Ratio CB1/CB2” value in assay [2] (Table 3, ratio of Ki values) was determined as 0.78.
With `CC1=CC[C@@H]2[C@@H](C1)c1c(O)cc(C(=O)c3ccccc3)cc1OC2(C)C` [Compound 36, methanone-phenyl-Δ^8-THC], the Ki in assay [1] (setting [9]) worked out at 23.6 nM; in assay [2] (setting [10]), 297 nM. Further, in assay [2], the “Ratio CB1/CB2” value stood at 12.6. In assay [2], the “fold decrease in binding affinity for the CB1 receptor compared to Δ8-THC” value was around 10 fold.
For `CC1=CCC2C(C1)c1c(O)cc(C(C)(C)c3ccc(C)cc3)cc1OC2(C)C` (centres unmarked) [Compound 50, 6,6,9-Trimethyl-3-(1-methyl-1-p-tolyl-ethyl)-6a,7,10,10a-tetrahydro-6H-benzo[c]chromen-1-ol], the Ki in assay [1] came out at 0.88 nM; in assay [2] (setting [12]) it was 2.13 nM. Also, in assay [1] (setting [11]), the “CB2 Ki” value was “sub-nanomolar”. Moreover, the “Ratio CB1/CB2” value in assay [2] (Table 8, ratio of Ki values) is 3.56.
In the case of `CC1=CCC2C(C1)c1c(O)cc(C(C)(C)c3cccc(C)c3)cc1OC2(C)C` (centres unmarked) [Compound 51, 6,6,9-Trimethyl-3-(1-methyl-1-m-tolyl-ethyl)-6a,7,10,10a-tetrahydro-6H-benzo[c]chromen-1-ol], the figures for the Ki in assay [1] and in assay [2] (setting [12]) were 1.13 nM and 2.53 nM, respectively. Besides, the “Ratio CB1/CB2” value in assay [2] (Table 8, ratio of Ki values) is on record as 2.24.
Take `CC1=CCC2C(C1)c1c(O)cc(C(C)(C)c3ccc(Cl)cc3)cc1OC2(C)C` (centres unmarked) [Compound 52, 3-[1-(4-Chloro-phenyl)-1-methyl-ethyl]-6,6,9-trimethyl-6a,7,10,10a-tetrahydro-6H-benzo[c]chromen-1-ol]: the Ki is 12.4 nM in assay [1] and 76.1 nM in assay [2] (setting [12]).
On the same counts, the results for `CC1=CCC2C(C1)c1c(O)cc(C(C)(C)c3cccc(Cl)c3)cc1OC2(C)C` (centres unmarked) [Compound 53, 3-[1-(3-Chloro-phenyl)-1-methyl-ethyl]-6,6,9-trimethyl-6a,7,10,10a-tetrahydro-6H-benzo[c]chromen-1-ol] are 1.68 nM and 18.8 nM.
For `CC1=CCC2C(C1)c1c(O)cc(C(C)(C)c3ccc(F)cc3)cc1OC2(C)C` (centres unmarked) [Compound 54, 3-[1-(4-Fluoro-phenyl)-1-methyl-ethyl]-6,6,9-trimethyl-6a,7,10,10a-tetrahydro-6H-benzo[c]chromen-1-ol], the Ki in assay [1] turned out to be 3.54 nM; in assay [2] (setting [12]), 2.8 nM. Further, in assay [1] (setting [11]), the “CB2 Ki” value is “did show enhanced affinity for the CB-2 receptor”. Besides, the “Ratio CB1/CB2” value in assay [2] amounted to 0.79.
Take `CC1=CCC2C(C1)c1c(O)cc(C(C)(C)c3cccs3)cc1OC2(C)C` (centres unmarked) [Compound 55, 6,6,9-Trimethyl-3-(1-methyl-1-thiophen-2-yl-ethyl)-6a,7,10,10a-tetrahydro-6H-benzo[c]chromen-1-ol]: the Ki in assay [1] turned out to be 0.27 nM; in assay [2] it was 1.08 nM. Further, the “CB2 Ki” value in assay [1] (setting [11]) is on record as “sub-nanomolar”. The “Ratio CB1/CB2” value in assay [2] was 4.00.
With `CCCCCCC(C)(C)c1cc(O)c2c(c1)OC(C)(C)C1CC=C(C)CC21` (centres unmarked) [DMHT, 1′,1′-dimethylheptyl-Δ^8-THC], the Ki in assay [4] was 0.77 nM.
For `CCCCCCC1(c2cc(O)c3c(c2)OC(C)(C)C2CC=C(C)CC32)SCCS1` (centres unmarked) [DTHT, 1′,1′-dithiolaneheptyl-Δ^8-THC], the inhibitory constant (Ki) in assay [4] is 0.32 nM.
Turning to “gem-dimethyl-phenyl-Δ^8-THC [Compound 33]”, in assay [1] (CB2 over CB1), the “fold selectivity for the CB2 receptor” value is listed as 13 fold. Further, the Ki in assay [1] (setting [9]) amounted to 0.91 nM; in assay [1] (Table 8, SEM in parentheses, n≧2 in triplicate, read-out: CB2 Ki), 0.91 nM; in assay [2] (read-out: CB1 Ki), 12.3 nM. In assay [2], the “Ratio CB1/CB2” value is listed as 13.5. For the same molecule, in assay [5], the “time to complete cell death” value was at most 5 h.

The Ki is a dissociation constant, usually derived from enzyme kinetics or from competition with a known ligand.

Values taken from patent US7169942B2, “Cannabinoid derivatives, methods of making, and use thereof” (priority 2003, dated 2007).
